In the CheMixHub viscosity set:
“And” between values parts separate entries of the source, which are not always exact repeats. Identical values can stand only once. ± gives the uncertainty stated by the source.

Legend:
[1] = xn = mol fraction of the nth substance listed; conditions: 101 kPa

Compound: C=CC[n+]1ccn(C)c1.[Cl-]
- viscosity (298.15 K, 101 kPa): 254.5 ± 10 mPa·s

Compound: CC(C)C1CCCCC1
- viscosity (293.15 K, 100 kPa): 1.098 ± 0.023 mPa·s
- viscosity (303.15 K, 100 kPa): 0.949 ± 0.02 mPa·s and 0.95 ± 0.02 mPa·s
- viscosity (308.15 K, 100 kPa): 0.885 ± 0.019 mPa·s and 0.889 ± 0.019 mPa·s
- viscosity (313.15 K, 100 kPa): 0.83 ± 0.018 mPa·s and 0.833 ± 0.018 mPa·s
- viscosity (318.15 K, 100 kPa): 0.781 ± 0.017 mPa·s and 0.783 ± 0.017 mPa·s
- viscosity (323.15 K, 100 kPa): 0.736 ± 0.016 mPa·s

Compound: CC(Cl)(Cl)Cl
- viscosity (303.15 K, 101 kPa): 0.7243 ± 0.0059 mPa·s and 0.7245 ± 0.019 mPa·s
- viscosity (303.15 K, 101.3 kPa): 0.7275 ± 0.0062 mPa·s
- viscosity (303.15 K, 101.32 kPa): 0.642 ± 0.064 mPa·s and 0.7243 ± 0.0088 mPa·s
- viscosity (303.15 K, 101.33 kPa): 0.7243 ± 0.0053 mPa·s
- viscosity (313.15 K, 101.32 kPa): 0.583 ± 0.058 mPa·s

Compound: CC/C(C)=N/O
- viscosity (293.15 K, 101.3 kPa): 4.767 ± 0.031 mPa·s
- viscosity (298.15 K, 101.3 kPa): 4.016 ± 0.026 mPa·s and 4.02 ± 0.026 mPa·s
- viscosity (303.15 K, 101.3 kPa): 3.437 ± 0.022 mPa·s

Compound: CCCCCBr
- viscosity (293.15 K, 101 kPa): 0.798 ± 0.017 mPa·s
- viscosity (303.15 K, 101 kPa): 0.709 ± 0.015 mPa·s
- viscosity (308.15 K, 101 kPa): 0.6509 ± 0.0054 mPa·s
- viscosity (313.15 K, 101 kPa): 0.637 ± 0.014 mPa·s
- viscosity (323.15 K, 101 kPa): 0.574 ± 0.012 mPa·s

Compound: CCCCCCCCn1cc[n+](C)c1.[Cl][Fe-]([Cl])([Cl])[Cl]
- viscosity (293.15 K, 101 kPa): 167 ± 9.3 mPa·s
- viscosity (298.15 K, 101 kPa): 133.2 ± 6.8 mPa·s
- viscosity (303.15 K, 101 kPa): 106 ± 5 mPa·s
- viscosity (308.15 K, 101 kPa): 84.71 ± 3.8 mPa·s
- viscosity (313.15 K, 101 kPa): 68.3 ± 2.9 mPa·s
- viscosity (318.15 K, 101 kPa): 55.87 ± 2.3 mPa·s
- viscosity (323.15 K, 101 kPa): 46.6 ± 2 mPa·s

Compound: CCCC[N+](CCCC)(CCCC)CCCC.[OH-]
- viscosity (298.15 K, 100 kPa): 6.69 ± 0.14 mPa·s
- viscosity (298.15 K, 101 kPa): 6.69 mPa·s
- viscosity (303.15 K, 100 kPa): 6.49 ± 0.14 mPa·s
- viscosity (303.15 K, 101 kPa): 6.49 mPa·s
- viscosity (308.15 K, 100 kPa): 6.29 ± 0.13 mPa·s
- viscosity (308.15 K, 101 kPa): 6.29 mPa·s
- viscosity (313.15 K, 100 kPa): 6.13 ± 0.13 mPa·s
- viscosity (313.15 K, 101 kPa): 6.13 mPa·s

Compound: CCn1cc[n+](CCOC)c1.N#C[S-]
- viscosity (293.15 K, 100 kPa): 70.77 ± 3.9 mPa·s
- viscosity (298.15 K, 100 kPa): 55.77 ± 3 mPa·s
- viscosity (303.15 K, 100 kPa): 44.34 ± 2.4 mPa·s
- viscosity (308.15 K, 100 kPa): 36 ± 2 mPa·s
- viscosity (313.15 K, 100 kPa): 29.73 ± 1.6 mPa·s
- viscosity (318.15 K, 100 kPa): 24.89 ± 1.4 mPa·s

Compound: COC(=O)c1ccccc1C(=O)OC
- viscosity (293.15 K, 101 kPa): 17.63 ± 0.54 mPa·s
- viscosity (298.15 K, 101 kPa): 13.8 ± 0.42 mPa·s
- viscosity (303.15 K, 101 kPa): 11.07 ± 0.34 mPa·s
- viscosity (308.15 K, 101 kPa): 9.064 ± 0.28 mPa·s
- viscosity (313.15 K, 101 kPa): 7.558 ± 0.23 mPa·s
- viscosity (318.15 K, 101 kPa): 6.4 ± 0.2 mPa·s
- viscosity (323.15 K, 101 kPa): 5.493 ± 0.17 mPa·s

Compound: O=CC(Br)(Br)Br
- viscosity (293.15 K, 101.33 kPa): 6.81 ± 0.09 mPa·s
- viscosity (313.15 K, 101.33 kPa): 3.72 ± 0.06 mPa·s

Compound: O=CO
- viscosity (293.15 K, 101.33 kPa): 1.959 ± 0.02 mPa·s
- viscosity (298.15 K, 101.33 kPa): 1.51 ± 0.08 mPa·s
- viscosity (303.15 K, 101 kPa): 1.43 ± 0.029 mPa·s and 1.434 ± 0.029 mPa·s (2×)
- viscosity (303.15 K, 101.33 kPa): 1.36 ± 0.07 mPa·s
- viscosity (308.15 K, 101 kPa): 1.304 ± 0.034 mPa·s
- viscosity (308.15 K, 101.33 kPa): 1.25 ± 0.06 mPa·s
- viscosity (313.15 K, 101.33 kPa): 1.291 ± 0.013 mPa·s and 1.15 ± 0.06 mPa·s
- viscosity (318.15 K, 101 kPa): 1.089 ± 0.029 mPa·s
- viscosity (323.15 K, 101 kPa): 0.9767 ± 0.026 mPa·s

Compound: O=CO + O=[N+]([O-])c1ccccc1
- viscosity ([1]; 298.15 K, x1 = 0.1791): 1.676 ± 0.044 mPa·s
- viscosity ([1]; 298.15 K, x1 = 0.2956): 1.636 ± 0.043 mPa·s
- viscosity ([1]; 298.15 K, x1 = 0.4132): 1.604 ± 0.043 mPa·s
- viscosity ([1]; 298.15 K, x1 = 0.5229): 1.591 ± 0.042 mPa·s
- viscosity ([1]; 298.15 K, x1 = 0.6396): 1.593 ± 0.042 mPa·s
- viscosity ([1]; 298.15 K, x1 = 0.7402): 1.592 ± 0.042 mPa·s
- viscosity ([1]; 298.15 K, x1 = 0.8361): 1.576 ± 0.042 mPa·s
- viscosity ([1]; 323.15 K, x1 = 0.1791): 1.114 ± 0.029 mPa·s
- viscosity ([1]; 323.15 K, x1 = 0.2956): 1.084 ± 0.029 mPa·s
- viscosity ([1]; 323.15 K, x1 = 0.4132): 1.054 ± 0.028 mPa·s
- viscosity ([1]; 323.15 K, x1 = 0.5229): 1.043 ± 0.028 mPa·s
- viscosity ([1]; 323.15 K, x1 = 0.6396): 1.025 ± 0.027 mPa·s
- viscosity ([1]; 323.15 K, x1 = 0.7402): 1.029 ± 0.027 mPa·s
- viscosity ([1]; 323.15 K, x1 = 0.8361): 1.005 ± 0.027 mPa·s
